Test results published in ChEMBL document CHEMBL1151121, “1H-nmr analysis of herbimycins and dihydro-herbimycins” (1988).
In brackets after ≈: the same amount, converted by molar mass.

Assays:
P388 = experiment: Cytotoxicity against mouse P388 cells; format: functional; conditions: read-out: ED50 (the source's name)
KB = experiment: Cytotoxicity against human KB cells; format: functional; conditions: read-out: ED50 (the source's name)

CO[C@H]1[C@@H](OC)C[C@H](C)[C@@H](OC)c2cc(O)cc(c2O)NC(=O)/C(C)=C/C=C\[C@H](OC)[C@@H](OC(N)=O)/C(C)=C/[C@@H]1C [DIHYDRO-HERBIMYCIN A]
EC50 (P388): 0.022 µg/mL (≈ 0.0381 µM) | EC50 (KB): 0.3 µg/mL (≈ 0.52 µM)

CO[C@H]1[C@@H](OC)C[C@H](C)[C@@H](OC)C2=CC(=O)C=C(NC(=O)/C(C)=C/C=C/[C@H](OC)[C@@H](OC(N)=O)/C(C)=C/[C@@H]1C)C2=O [HERBIMYCIN]
EC50 (P388): 0.0051 µg/mL (≈ 0.00887 µM) | EC50 (KB): 0.12 µg/mL (≈ 0.209 µM)

CO[C@H]1/C=C\C=C(/C)C(=O)NC2=CC(=O)C=C(C2=O)[C@H](OC)[C@@H](C)C[C@H](OC)[C@H](O)[C@@H](C)/C=C(\C)[C@@H]1OC(N)=O [HERBIMYCIN C]
EC50 (P388): 0.17 µg/mL (≈ 0.303 µM) | EC50 (KB): 0.12 µg/mL (≈ 0.214 µM)

CO[C@H]1/C=C\C=C(/C)C(=O)Nc2cc(O)cc(c2O)C[C@@H](C)C[C@H](OC)[C@H](O)[C@@H](C)/C=C(\C)[C@@H]1OC(N)=O
EC50 (P388): 0.34 µg/mL (≈ 0.638 µM) | EC50 (KB): 3.49 µg/mL (≈ 6.55 µM)
